By AUC is commonly meant the area under the concentration-time curve, a measure of exposure.

The source of these data is US8273769B2, “Phenoxy acetic acid derivatives” (Merck Serono SA, priority 2009, dated 2012).

The structures appear in SMILES notation.

A short description of the data set: In vivo pharmacokinetic evaluation in rat. More on the design: species or system Sprague Dawley male rats. As to the method:
In order to study the pharmacokinetic (PK) profile of test compounds in vivo, Sprague Dawley male rats or C57BL/6 female mice were dosed intravenously or after oral gavage. For both species, test compounds were dosed in solution at 1 mg/kg for i.v. route (10% ethanol, 10% N,N-dimethylacetamide, 30% propylene glycol, 50% water, v/v) and in suspension at 5 mg/kg (0.5% carboxymethylcellulose suspension, containing 0.25% Tween 20 in water) for oral gavage. PK profile in rat was obtained from 3 animals per dosing route and mouse PK profile was determined from 3 animals for each time points. The volume of administration was 2 mL/kg for i.v. dosing in both species and either 5 mL/kg (rat) or 10 mL/kg (mouse) for oral gavage. Blood samples (100 μL/time point) were collected at 0.083 (5 min), 0.25, 0.5, 1, 4, 7 and 24 hours post-dose for i.v. dosing, and at 0.5, 1, 4, 7 and 24 h for oral dosing, into heparin-Li+ containing tubes. For rats, all blood samples were collected trough a catheter in the carotid artery (placed in the artery the day before the experiment), under light isoflurane anesthesia, and stored on ice until centrifugation and plasma isolation. […] For bioanalysis, samples were processed by protein precipitation (acetonitrile, formic acid 0.1%, addition of 3 volumes) after addition of one internal standard and analysed using a sensitive and selective LC/MS/MS method. An aliquot of the resulting supernatant was subject to LC/MS/MS analysis using a reverse phase column (Waters Xterra, C8, (3.5 μm particle size, 2.1×50 mm) and a short gradient (1 min) from (Solvent A) 85% water, 15% acetonitrile and 0.1% formic acid to (Solvent B) 90% acetonitrile, 10% water and 0.1% formic acid followed by isocratic conditions of Solvent B for 3.5 min at 0.4 mL/min. Column effluent was monitored using a Sciex API 4000 triple quadrupole mass spectrometer with a Turbo V electrospray ion source. Unknown concentrations of test compounds were determined using a calibration curve ranging from 1 to 3000 ng/mL.

`CCCS(=O)(=O)c1cccc(C#Cc2cc(Cl)ccc2OCC(=O)O)c1` [Example 17, (4-chloro-2-{[3-(propylsulfonyl)phenyl]ethynyl}phenoxy)acetic acid] displayed an Oral bioavailability of 28%. The “Clearance iv (1 mg/Kg)” value (i.v. 1 mg/Kg) was found to be 6.7 mL/min/kg. For the same compound, the AUC (male, Sprague Dawley, plasma, oral gavage 5 mg/Kg) was determined as 3700 ng·h/mL.
